In ChEMBL document CHEMBL6103643, “Total Synthesis of (-)- and (+)-Talaroenamine B and Diphenylene Derivatives” (J Nat Prod, 2025):
Counter-ions that a name gives are not always drawn.

Key:
Acetylcholinesterase = Acetylcholinesterase (Homo sapiens, UniProt P22303); test: Inhibition of AChE (unknown origin) by Ellman's method
ASPC1 = test: Cytotoxicity against human ASPC1 cells assessed as inhibition of cell growth by SRB assay; assay type: functional, cell-based
K562 = test: Cytotoxicity against human K562 cells assessed as inhibition of cell growth by MTT assay; assay type: functional, cell-based
[1] = Cytotoxicity against human L02 cells assessed as inhibition of cell growth by SRB assay; assay type: toxicity, cell-based
[2] = Cytotoxicity against human Cisplatin/etoposide-resistant NCI-H446/EP cells assessed as inhibition of cell growth by SRB assay; assay type: functional, cell-based
NCI-H446 = test: Cytotoxicity against human NCI-H446 cells assessed as inhibition of cell growth by SRB assay; assay type: functional, cell-based
[3] = Selectivity index, ratio of IC50 for cytotoxicity against human L02 cells to IC50 for cytotoxicity against human K562 cells; assay type: toxicity, cell-based; settings: L02 cells and K562 cells, read-out: Ratio IC50

Sequence of Acetylcholinesterase (P22303 whole entry): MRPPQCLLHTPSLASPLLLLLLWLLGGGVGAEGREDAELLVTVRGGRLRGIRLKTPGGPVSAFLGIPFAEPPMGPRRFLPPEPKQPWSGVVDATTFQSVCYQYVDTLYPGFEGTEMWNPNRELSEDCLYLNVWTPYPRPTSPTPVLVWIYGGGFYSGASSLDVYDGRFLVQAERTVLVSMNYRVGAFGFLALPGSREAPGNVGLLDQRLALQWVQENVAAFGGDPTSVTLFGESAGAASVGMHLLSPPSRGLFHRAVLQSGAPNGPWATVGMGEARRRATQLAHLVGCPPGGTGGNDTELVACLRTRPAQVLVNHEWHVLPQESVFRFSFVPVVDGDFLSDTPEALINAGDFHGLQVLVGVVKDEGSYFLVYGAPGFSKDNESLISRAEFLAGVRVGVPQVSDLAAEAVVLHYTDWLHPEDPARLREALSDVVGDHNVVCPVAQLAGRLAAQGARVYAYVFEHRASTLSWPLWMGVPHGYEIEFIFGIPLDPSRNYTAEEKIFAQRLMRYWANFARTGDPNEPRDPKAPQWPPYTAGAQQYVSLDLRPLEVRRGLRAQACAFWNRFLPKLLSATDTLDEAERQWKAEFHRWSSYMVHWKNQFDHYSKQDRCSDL

| Structure (SMILES) | IC50 (Acetylcholinesterase) | IC50 (ASPC1) | IC50 (K562) | IC50 [1] | IC50 [2] | IC50 (NCI-H446) | selectivity ratio [3] |
| --- | --- | --- | --- | --- | --- | --- | --- |
| CC1=CC(=O)[C@@](C)(O)C(=O)/C1=C\Nc1ccc(Cc2ccccc2)cc1 | > 100 µM | > 30 µM | > 30 µM | > 30 µM | > 30 µM | > 30 µM |  |
| CC1=CC(=O)[C@](C)(O)C(=O)/C1=C\Nc1ccc(Oc2ccc(C#N)cc2)cc1 | 24.4 µM | > 30 µM | > 30 µM | > 30 µM | > 30 µM | > 30 µM |  |
| CC1=CC(=O)[C@](C)(O)C(=O)/C1=C\Nc1ccc(Oc2ccc(C)cc2)cc1 | > 100 µM | > 30 µM | > 30 µM | 19.8 µM | > 30 µM | > 30 µM |  |
| CC1=CC(=O)[C@@](C)(O)C(=O)/C1=C\Nc1ccc(Oc2cccc(F)c2)cc1 | > 100 µM | > 30 µM | > 30 µM | > 30 µM | > 30 µM | > 30 µM |  |
| CC1=CC(=O)[C@](C)(O)C(=O)/C1=C\Nc1ccc(Oc2ccc(Cl)cc2)cc1 | > 100 µM | > 30 µM | 9.5 µM | 17 µM | > 30 µM | > 30 µM | 1.7 |
| CC1=CC(=O)[C@](C)(O)C(=O)/C1=C\Nc1ccc(Cc2ccccc2)cc1 | 4.5 µM | > 30 µM | 5.6 µM | 18.6 µM | > 30 µM | > 30 µM | 3.3 |
| CC1=CC(=O)[C@](C)(O)C(=O)/C1=C\Nc1ccc(Oc2ccc([N+](=O)[O-])cc2)cc1 | 68.1 µM | > 30 µM | > 30 µM | > 30 µM | > 30 µM | > 30 µM |  |
| CC1=CC(=O)[C@@](C)(O)C(=O)/C1=C\Nc1ccc(Oc2ccc(Cl)cc2)cc1 | > 100 µM | > 30 µM | > 30 µM | > 30 µM | > 30 µM | > 30 µM |  |
| CC1=CC(=O)[C@@](C)(O)C(=O)/C1=C\Nc1ccc(Oc2ccc(C#N)cc2)cc1 | 4.7 µM | > 30 µM | > 30 µM | > 30 µM | > 30 µM | > 30 µM |  |
| CC1=CC(=O)[C@@](C)(O)C(=O)/C1=C\Nc1ccc(Oc2ccc(C)cc2)cc1 | > 100 µM | > 30 µM | > 30 µM | > 30 µM | > 30 µM | > 30 µM |  |
| CC1=CC(=O)[C@@](C)(O)C(=O)/C1=C\Nc1ccccc1 | > 100 µM | > 30 µM | > 30 µM | > 30 µM | > 30 µM | > 30 µM |  |
| COc1cccc2c1C(=O)c1c(O)c3c(c(O)c1C2=O)C[C@@](O)(C(=O)CO)C[C@@H]3O[C@H]1C[C@H](N)[C@H](O)[C@H](C)O1 [DOXORUBICIN HYDROCHLORIDE] |  | 15.1 µM |  |  | 0.2 µM | 0.3 µM |  |
| CC1=CC(=O)[C@](C)(O)C(=O)/C1=C\Nc1ccc(Oc2cccc(F)c2)cc1 | > 100 µM | > 30 µM | 15.5 µM | > 30 µM | > 30 µM | > 30 µM | > 1.9 |
| CC1=CC(=O)[C@](C)(O)C(=O)/C1=C\Nc1ccccc1 | > 100 µM | > 30 µM | > 30 µM | > 30 µM | > 30 µM | > 30 µM |  |
| CC1=CC(=O)[C@@](C)(O)C(=O)/C1=C\Nc1ccc(Oc2ccc([N+](=O)[O-])cc2)cc1 | > 100 µM | > 30 µM | > 30 µM | > 30 µM | > 30 µM | > 30 µM |  |
